The source of these data is patent US8435978B2, “Substituted sulfonamide compounds” (Gruenenthal GmbH, priority 2006, dated 2013).

One may read the ED50 as the midpoint of the dose-response relation.

Assay [1] addresses T1, human B1R receptor (Homo sapiens, UniProt P46663).
T1 construct: host or cells: CHO K1 cells (Chinese hamster ovary), stably transfected
T1 sequence (P46663 1-353): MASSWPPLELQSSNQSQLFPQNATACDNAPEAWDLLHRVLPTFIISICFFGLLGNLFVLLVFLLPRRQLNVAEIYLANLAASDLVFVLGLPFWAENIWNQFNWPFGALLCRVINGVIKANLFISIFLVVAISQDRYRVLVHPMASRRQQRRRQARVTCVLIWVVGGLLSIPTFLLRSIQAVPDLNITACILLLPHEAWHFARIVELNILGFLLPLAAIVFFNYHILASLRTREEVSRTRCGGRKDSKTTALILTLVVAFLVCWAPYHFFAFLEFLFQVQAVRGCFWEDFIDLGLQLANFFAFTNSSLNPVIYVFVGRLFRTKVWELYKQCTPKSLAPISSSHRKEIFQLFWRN
In words: Functional study on the bradykinin receptor 1 (B1R), FLIPR Ca2+ assay, hB1R cells. The assay is classed as cell-based. As to conditions: test substance 10 μM; hB1R CHO K1 cells; agonist Lys-Des-Arg9-bradykinin 0.5 nM; % inhibition compared with the maximum achievable inhibition. An outline of the steps: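 FLIPR Ca2+ assay in recombinant CHO K1 cells (human or rat B1R), Fluo-4 dye; 10 μM compound, 10 min, then EC-level agonist per species (0.5 nM Lys-Des-Arg9-BK human / 100 nM Des-Arg9-BK rat). Output: % inhibition vs maximum.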

In assay [2] the test system is formalin-induced pain behavior. In words: Formalin test in the mouse (phase 2, chronic pain component). The format is in vivo. The note with it: iv, 5 min. before formalin injection, observation 21 to 24 minutes after formalin. How it is done:
The formalin test (Dubuisson, D. and Dennis, S. G., 1977, Pain, 4, 161-174) represents a model for both acute and chronic pain. By means of a single formalin injection into the dorsal side of a rear paw, a biphasic nociceptive reaction is induced in freely mobile test animals; the reaction is detected by observing three behaviour patterns which are clearly distinguishable from one another. The reaction is two-phase: phase 1=immediate reaction (duration up to 10 min., shaking of the paw, licking), phase 2=late reaction (after a rest phase; likewise shaking of the paw, licking; duration up to 60 min.). The 1st phase reflects a direct stimulation of the peripheral nocisensors with high spinal nociceptive input (acute pain phase); the 2nd phase reflects a spinal and peripheral hypersensitization (chronic pain phase). In the studies described here, the chronic pain component (phase 2) has been evaluated. Formalin in a volume of 20 μl and a concentration of 1% is administered subcutaneously into the dorsal side of the right rear paw of each animal. The specific changes in behavior, such as lifting, shaking or licking of the paw (score 3, Dubuisson & Dennis, 1977), are observed and recorded in the observation period of 21 to 24 minutes following the formalin injection. The behaviour of the animals after administration of the substance (n=10 per dose of substance) was compared with a control group which received vehicle (n=10). Based on the quantification of the pain behavior, the action of the substance in the formalin test was determined as the change in percent compared with the control. The ED50 calculations (ED50=mean effective dose) were carried out by regression analysis according to the method of Litchfield and Wilcoxon (Litchfield, J. T., Wilcoxon, J. J., 1949, J. Pharmacol. Exp. Ther. 96, 99-113). The time of administration before the formalin injection was chosen in dependence on the mode of administration of the compounds according to the invention (intravenous: 5 min.).

Turning to `COc1cc(C)c(S(=O)(=O)N2CCCCC2COCC(=O)N2CCN(C3CCN(C)CC3)CC2)c(C)c1` (centres unmarked) [Example 8, 2-[1-(4-methoxy-2,6-dimethyl-phenylsulfonyl)-piperidin-2-ylmethoxy]-1-[4-(1-methyl-piperidin-4-yl)-piperazin-1-yl]-ethanone], the “B1R Antagonism, human [10 μM] % Inhibition” value in assay [1] was found to be 101.66%. In assay [2], this compound had a median effective dose (ED50) of 12.8 mg/kg.
